Here are results for seven compounds from patent US10392390B2, “5-HT2C receptor agonists and compositions and methods of use” (Arena Pharmaceuticals, Inc., priority 2015, dated 2019).

Series [1] addresses T1, 5-HT2C receptor (Homo sapiens, UniProt P28335).
T1 construct: expressed in transfected cells; host or cells: HEK293
T1 sequence (P28335 33-458): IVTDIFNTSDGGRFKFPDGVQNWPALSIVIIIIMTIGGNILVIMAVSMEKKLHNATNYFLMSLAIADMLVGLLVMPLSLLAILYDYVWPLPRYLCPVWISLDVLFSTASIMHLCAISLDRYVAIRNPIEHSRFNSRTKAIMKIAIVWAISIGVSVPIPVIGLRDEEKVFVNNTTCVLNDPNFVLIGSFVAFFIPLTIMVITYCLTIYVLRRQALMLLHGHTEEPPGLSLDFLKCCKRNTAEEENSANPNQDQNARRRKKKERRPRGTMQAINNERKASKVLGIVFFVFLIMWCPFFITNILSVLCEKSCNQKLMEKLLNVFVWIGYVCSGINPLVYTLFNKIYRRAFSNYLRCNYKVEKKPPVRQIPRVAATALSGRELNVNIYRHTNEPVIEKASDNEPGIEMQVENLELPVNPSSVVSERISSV
The series is described as follows: IP accumulation assay in HEK293 cells expressing recombinant 5-HT2 receptors. The settings on record: 2 h at 37° C. It is filed as cell-based.
Description: (§1) HEK293 cells expressing recombinant 5-HT2 receptors were added to sterile poly-D-lysine-coated 96-well microtiter plates (35,000 cells/well) and labeled with 0.6 μCi/well of [^3H]inositol in myoinositol-free DMEM for 18 h. Unincorporated [^3H]inositol was removed by aspiration and replaced with fresh myoinositol-free DMEM supplemented with LiCl (10 mM final) and pargyline (10 μM final). Serially diluted test compounds were then added and incubation was conducted for 2 h at 37° C. Incubations were then terminated by lysing cells with the addition of ice-cold 0.1 M formic acid followed by freezing at −80° C. After thawing, total [^3H]inositol phosphates were resolved from [^3H]inositol using AG1-X8 ion exchange resin (Bio-Rad) and [^3H]inositol phosphates were measured by scintillation counting using a Perkin Elmer TopCount® scintillation counter. All EC50 determinations were performed using 10 different concentrations and triplicate determinations were made at each test concentration.

Series [2] addresses T1, 5-HT2C receptor. The series is described as follows: Radioligand binding assay, [125I]DOI competition. The settings on record: HEK293 cell membranes, read-out: DOI Binding Ki 2C.
Description: (§2) HEK293 cells stably expressing recombinant 5-HT2 receptors were harvested, suspended in ice-cold phosphate buffered saline, pH 7.4 (PBS), and then centrifuged at 48,000 g for 20 min at 4° C. The resulting cell pellet was then re-suspended in wash buffer containing 20 mM HEPES, pH 7.4 and 0.1 mM EDTA, homogenized on ice using a Brinkman Polytron, and centrifuged (48,000 g for 20 min at 4° C.). The pellet was then resuspended in 20 mM HEPES, pH 7.4, homogenized on ice, and centrifuged (48,000 g for 20 min at 4° C.). Crude membrane pellets were stored at −80° C. until used for radioligand binding assays.
Radioligand binding assays were performed using the commercially available 5-HT2 receptor agonist [^125I]DOI as the radioligand and nonspecific binding was determined in the presence of unlabeled DOI at a saturating concentration of 10 μM. Competition experiments utilized 5-HT2 receptor expressing HEK293 cell membranes obtained as described in Example 3 (15-25 μg membrane protein/well) and radioligand at final assay concentrations of 0.4 to 0.6 nM. […] Finally, 25 μL of BetaScint™ scintillation cocktail was added to each well and the plates were counted in a Packard TopCount® scintillation counter. […]
Series [3] concerns the target T2, 5-HT2A receptor (Homo sapiens, UniProt P28223).
T2 construct: expressed in transfected cells; host or cells: HEK293
The series is described as follows: Radioligand binding assay, [125I]DOI competition. The note with it: HEK293 cell membranes, read-out: DOI Binding Ki 2A.
Description: as §2
(§3) Experiments comprised addition of 95 μL, of assay buffer (20 mM HEPES, pH 7.4, 10 mM MgCl2), 50 μL, of membranes, 50 μL, of radioligand stock, and 5 μL of test compound diluted in assay buffer to 96-well microtiter plates, which were then incubated for 1 h at room temperature. Assay incubations were terminated by rapid filtration through PerkinElmer F/C filtration plates under reduced pressure using a 96-well Packard filtration apparatus, followed by washing three times with ice cold assay buffer. Plates were then dried at 45° C. for a minimum of 2 h. Finally, 25 μL of BetaScint™ scintillation cocktail was added to each well and the plates were counted in a Packard TopCount® scintillation counter. […]

For the next series, the target named is T3, 5-HT2B receptor (Homo sapiens, UniProt P41595).
T3 construct: expressed in transfected cells; host or cells: HEK293
T3 sequence (P41595 whole entry): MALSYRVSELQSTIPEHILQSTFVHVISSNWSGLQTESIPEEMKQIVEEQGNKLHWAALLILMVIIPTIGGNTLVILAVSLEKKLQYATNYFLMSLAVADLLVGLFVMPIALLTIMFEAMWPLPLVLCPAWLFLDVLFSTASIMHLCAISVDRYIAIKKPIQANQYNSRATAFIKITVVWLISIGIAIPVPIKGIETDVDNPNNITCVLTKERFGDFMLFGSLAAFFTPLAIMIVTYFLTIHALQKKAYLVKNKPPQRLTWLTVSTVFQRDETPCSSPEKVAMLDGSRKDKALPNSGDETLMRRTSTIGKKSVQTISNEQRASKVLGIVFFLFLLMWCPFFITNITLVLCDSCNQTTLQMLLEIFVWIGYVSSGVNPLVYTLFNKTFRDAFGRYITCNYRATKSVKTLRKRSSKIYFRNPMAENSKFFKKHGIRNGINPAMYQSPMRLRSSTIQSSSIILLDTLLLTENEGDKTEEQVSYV
The experiment in a line: Radioligand binding assay, [125I]DOI competition. The settings on record: HEK293 cell membranes, read-out: DOI Binding Ki 2B.

Series [4] concerns the target T2, 5-HT2A receptor. The series is described as follows: IP accumulation assay in HEK293 cells expressing recombinant 5-HT2 receptors. It counts as cell-based. The note with it: 2 h at 37° C.
Description: as §1
For series [5] the following is noted: reports that led to withdrawal in 1998; cited from earlier work.
The conditions of series [6]: a patient with Lennox-Gastaut syndrome; cited from earlier work.
The conditions of series [7]: one study, patients without diabetes; cited from earlier work.
The conditions of series [8]: cited from earlier work.
For series [9] the following is noted: cited from earlier work. This is another data set of the same source.
Setting [10] is: pivotal phase 3 program, up to two years.
The mark [11] stands for this setting: top quartile of patients, second phase 3 trial.

Structures are written as SMILES. pEC50, pKi: −log10 of the molar value.

T2 sequence (P28223 whole entry): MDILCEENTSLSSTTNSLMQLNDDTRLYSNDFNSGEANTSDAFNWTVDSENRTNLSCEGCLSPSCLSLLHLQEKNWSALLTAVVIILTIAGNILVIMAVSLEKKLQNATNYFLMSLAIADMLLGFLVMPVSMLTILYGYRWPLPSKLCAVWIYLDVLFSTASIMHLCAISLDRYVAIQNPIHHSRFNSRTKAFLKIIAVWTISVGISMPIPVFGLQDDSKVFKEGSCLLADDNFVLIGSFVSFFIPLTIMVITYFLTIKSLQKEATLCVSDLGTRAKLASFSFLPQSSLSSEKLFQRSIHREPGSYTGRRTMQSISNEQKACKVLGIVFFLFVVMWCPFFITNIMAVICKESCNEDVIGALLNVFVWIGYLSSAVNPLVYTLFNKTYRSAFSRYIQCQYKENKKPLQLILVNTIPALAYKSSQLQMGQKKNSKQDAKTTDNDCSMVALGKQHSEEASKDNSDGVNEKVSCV
Description for 5-HT2B receptor: as §2, §3

In general, pEC50 refers to the EC50 on a negative log10 scale, so that one unit is a factor of ten. As for `CCC1CN2CCNCc3ccc(C(=O)NCC(F)F)c1c32` (single isomer, unassigned) [1st eluting enantiomer in example 1.5, N-(2,2-difluoroethyl)-7-ethyl-1,2,3,4,6,7-hexahydro-[1,4]diazepino[6,7,1-hi]indole-8-carboxamide], the pEC50 at 5-HT2C receptor [1] is 4.82.
Broadly, the pKi is the negative decadic logarithm of the Ki, by convention in mol/L. Take `CCC1CN2CCNCc3ccc(C(=O)NCC(F)F)c1c32` (single isomer, unassigned) [2nd eluting enantiomer in example 1.5, N-(2,2-difluoroethyl)-7-ethyl-1,2,3,4,6,7-hexahydro-[1,4]diazepino[6,7,1-hi]indole-8-carboxamide]: the values for the pKi on 5-HT2C receptor [2], on 5-HT2A receptor [3] and on 5-HT2B receptor were 7.71, 5.18 and 4.03, respectively. Also, the pEC50 on 5-HT2C receptor [1] is 8.15.
As to `CC1(C)CN2CCNCc3ccc(C(=O)NCC(F)F)c1c32` [Compound 6, N-(2,2-difluoroethyl)-7,7-dimethyl-1,2,3,4,6,7-hexahydro-[1,4]diazepino[6,7,1-hi]indole-8-carboxamide], the pEC50 on 5-HT2C receptor [1] is 6.71.
For the compound `O=C(NCC(F)F)c1ccc2c3c1C1(CCC1)CN3CCNC2` [Compound 7, N-(2,2-difluoroethyl)-2,3,4,6-tetrahydro-1H-spiro[[1,4]diazepino[6,7,1-hi]indole-7,1′-cyclobutane]-8-carboxamide], the pKi is 7.44 at 5-HT2C receptor [2], 5.17 at 5-HT2A receptor [3] and 5.17 at 5-HT2B receptor. Besides, the pEC50 is 7.75 on 5-HT2C receptor [1] and 6.80 at 5-HT2A receptor [4].
Turning to `CCN[C@@H](C)Cc1cccc(C(F)(F)F)c1` [d-fenfluramine], in series [5], the “patients with reported cardiac valve defects” value is recorded as “up to one third”.
As for `CCNC(C)Cc1cccc(C(F)(F)F)c1` (stereo not drawn) [fenfluramine], the “reduction in seizure frequency during treatment” value in series [6] is recorded as “two-thirds”.
For `C[C@H]1CNCCc2ccc(Cl)cc21` [lorcaserin, (R)-8-chloro-1-methyl-2,3,4,5-tetrahydro-1H-3-benzazepine], in [7], the “insulin resistance (HOMA-IR) change” value is reported as −0.4. Moreover, in series [8] (10 mg BID, type 2 diabetes), the “reduction in HbA1c” value is on record as 0.9%. In addition, in [8] (patients with type 2 diabetes), the “decrease of mean daily doses of sulfonylureas and thiazolidinediones” value is recorded as 16-24%. Further, in [9] (first phase 3 trial, based on a normal BMI of 25), the “excess body weight lost” value is “about one-third”. Besides, in series [9] (setting [10]), the “patients who achieved at least 5% weight loss” value is on record as “About two-thirds” and the “patients who achieved at least 10% weight loss” value is listed as “over one-third”. Further, in [9] (setting [11]), the average weight loss was 35 pounds and the “average weight loss, of body weight” value was 16%.
